# Experimental data: a melting point compilation (Tetko et al.; mined from patent text by program, amines drawn as free bases though some values may be those of a salt)
row,Structure (SMILES),melting point [°C]
1,CCC(CC)Nc1cc(C)nc2c1nnn2-c1c(C)cc(C)cc1C,131 to 133
2,N#CCCN(CC1CC1)C(N)=O,84 to 87
3,Cc1ccc2cc(-c3ccc(F)cc3F)ccc2n1,86
4,O=C(O)c1cc2c3cc(Br)c(Br)cc3n(Cc3ccccc3)c2s1,269 to 273
5,O=C(O)C1CN(c2ccc(-c3noc(CN4C(=O)c5ccccc5C4=O)n3)cc2)C(=O)O1 (stereo unspecified),130 to 135
6,Nc1cnc2cc(F)c(F)cc2c1,155
7,CCN(CC)C(=S)n1cnc(S(=O)(=O)CC2CCCC2)n1,78
8,O=C(C#Cc1ccc(-c2ccc(Cl)cc2)cn1)Nc1ccc(CN2CCC(O)CC2)cc1,186 to 190
9,O=S(=O)(c1ccccc1)C1CCCC2(C1)OCCO2 (stereo unspecified),93 to 95
10,O=C(Nc1ccccc1)OCCCC(=O)c1ccccc1,121 to 123
11,COCCc1cccc2oc(C(=O)Nc3ccc(-c4ccc(S(=O)(=O)NC(C(=O)O)C(C)C)cc4)cc3)c(C)c12 (stereo unspecified),100 to 110
12,Cc1nnc(-c2ccccc2)n1-c1ccccc1,163
13,COC(=O)Cc1cc(Br)c(Sc2ccc(O)c(Cc3ccc(Cl)nn3)c2)c(Br)c1,133 to 135
14,CC(C)(C)[Si](ON1C(=O)c2ccccc2C1=O)(c1ccccc1)c1ccccc1,138 to 143
15,COc1ccc(S(=O)(=O)N2CSC(C)(C)[C@@H]2C(=O)NO)cc1,68 to 71
16,CNCc1cccc2c1ccn2S(=O)(=O)c1ccccc1,75 to 77
17,COc1ccc(C(=C2CCN(CCc3c(C)nc4scc(C)n4c3=O)CC2)c2ccc(F)cc2)cc1,140
18,O=CNNc1ccccc1NC(=S)Nc1ccccc1,224 to 226
19,CNc1nc(C(F)(F)F)cc(=O)n1-c1c(Cl)cc(C(F)(F)F)cc1Cl,211 to 214
20,CCCCc1nc(Cl)c(COCc2ccccc2C(=O)O)n1Cc1ccc(-c2ccccc2-c2nnn[nH]2)cc1,109 to 111
21,COc1ccc(C(O)CNCCc2ccc(OC)c(OC)c2Cl)cc1 (stereo unspecified),117 to 120
22,NC(=O)N(O)CCNC(=O)c1ccc(Oc2ccccc2)cc1,185 to 186
23,Cc1nn(-c2ccccn2)cc1CO,116 to 117
24,CCCc1nc2c(N)nc3cc(OCCc4ccc(F)cc4)ccc3c2s1,145 to 148
25,COC(=O)c1cc2c(I)cccc2cn1,165 to 167
26,CCCc1nc(C)n2nc(C)nc2c1Cc1ccc(-c2ccccc2C#N)cc1,132

row,Structure (SMILES),melting point [°C]
1,O=c1[nH]c2cc(Cl)cc(Cl)c2c(=O)n1Cc1cccc2ccccc12,274 to 276
2,CC(Oc1cc(C(F)(F)F)cc(C(F)(F)F)c1)C(=O)O (stereo unspecified),51 to 53
3,CCC(=O)Oc1ccc(-c2nc(-c3ccc(N(C)C)cc3)c(C)[nH]2)cc1OC,244 to 246
4,O=C(C=Cc1ccc2c(c1)OCO2)c1cccc(OCCCCBr)c1,97 to 98
5,CC(C)(C)CC(C)(C)c1ccc(Oc2ccc(C(F)(F)F)cc2NC(=O)Nc2cc(C(F)(F)F)cc(C(F)(F)F)c2)c(C(=O)O)c1,233
6,CSC(C)(C)C(=O)N[C@@H](CSSC[C@H](NC(=O)C(C)(C)SC)C(=O)O)C(=O)O,128 to 129
7,Cc1ccccc1C(=O)N[C@@H]1CCc2cccc(N3CCN(C)CC3)c2C1,179 to 180
8,COc1c(C)c2c(c(C(=O)O)c1C/C=C(\C)CCC(=O)O)C(=O)OC2,172 to 174
9,Cn1cc(S(N)(=O)=O)c(=O)c2ccc(Cl)cc21,235 to 237
10,CCCC1(Cl)Cc2cc(OCC(=O)O)c(Cl)c(Cl)c2C1=O (stereo unspecified),185 to 187
11,CNC(=S)N1CCN(c2cnccn2)CC1,197 to 200
12,ON(Cn1nnc2ccccc21)Cn1nnc2ccccc21,173 to 174
13,CC(C)(C)OC(=O)N[C@@H](Cc1ccccc1)C(=O)NCCCN1CCN(CCCNc2cccc3c2C(=O)c2ccccc2C3=O)CC1,168
14,CCn1c(=O)c2[nH]c(/C=C/c3cccc(F)c3C)nc2n(CC)c1=O,> 270
15,COc1cc2ncc3c4cc5c(cc4ccc3c2cc1OC)OCO5,225
16,CCC(CC)(c1ccc(F)cc1)c1c[nH]c2c(NS(C)(=O)=O)cccc12,137 to 138
17,O=C(O)CCCCCc1c(OCc2ccccc2)ccc2cncn12,139 to 141
18,CCOC(=O)CCc1cnc(-c2cc3cccc(N(C)S(=O)(=O)c4cccs4)c3[nH]2)s1,126 to 127
19,Cc1ccc2c(c1)SC1(CCOC1=O)C2=O (stereo unspecified),122 to 124
20,Cc1cc(-c2cccc(NC(=O)C(C)(C)C)c2)cc2c1[C@H]1CCC(=O)N(C)[C@@H]1CC2,95 to 98
21,Cc1c(Cl)sc2c1c(-c1ccccc1F)nc(=O)n2C,175 to 176
22,CCCCCCOc1ccc(CCC(=O)O)cc1,70 to 72
23,CC1CCN(c2cc(C(C)(C)C)ns2)C1=O (stereo unspecified),111 to 113
24,Nc1ncnc2c1c(-c1ccc(Oc3ccccc3)cc1)nn2C1CCC2(CC1)OCCO2,200 to 202
25,COc1cc(OCC(CO)CO)c(-c2cccs2)cc1C=CC(=O)c1ccc(S(N)(=O)=O)cc1,191 to 192
26,COC(=O)NN=Cc1cnc2ccccc2n1,242 to 244

row,Structure (SMILES),melting point [°C]
1,CCCCCCCCCCCC(=O)OC1CC(c2ccccc2)NC(c2ccccc2)C1C (stereo unspecified),56 to 59
2,Fc1ccc(-c2nc(SCSc3nc(-c4ccc(F)cc4)c(-c4ccc(F)cc4)[nH]3)[nH]c2-c2ccc(F)cc2)cc1,265
3,COc1cc2c(cc1C(F)(F)F)N(C(=O)Nc1cccs1)CC2,240 to 244
4,Cn1ccc(-c2sc(NC(=O)c3ccncc3)nc2-c2ccco2)cc1=O,280 to 282
5,CN1CCC=C(c2cccc3[nH]ccc23)C1,175
6,CCCOc1nc(C(F)(F)C(F)(F)F)cc(=O)n1-c1cc(O)c(Cl)cc1F,109 to 111
7,Cn1c(C(F)(F)F)cc(=O)n(-c2cc(OCc3ccccc3)c(Cl)cc2F)c1=O,129 to 131
8,CC1CCC2(C)C(=CCC3C4CC(O)C(=O)C4(C)CCC32)C1 (stereo unspecified),166 to 168
9,COC(=O)Cc1nsc(NC(=O)OCc2ccccc2)n1,121 to 123
10,COCCN(c1cccc2cc(-c3nccs3)[nH]c12)S(=O)(=O)c1cccs1,113 to 114
11,Fc1cc2c(cc1F)CC(n1cc[nH]c1=S)CC2 (stereo unspecified),206 to 207
12,NC(=O)c1ncn2c1[C@@H]1CCCN1C(=O)c1sccc1-2,222 to 223
13,COc1cc(OC)nc(NC(=O)NS(=O)(=O)c2ccccc2C2CO2)n1 (stereo unspecified),177 to 179
14,N#Cc1ccc(NC(=O)[C@H](CC(=O)O)NCc2ccccc2)cc1,178
15,CC(=O)Oc1cc2c(s1)C(N1CCCC1=O)CC(C)(C)O2 (stereo unspecified),92 to 93
16,COc1ccc(NN=C(Sc2cccc(Cl)c2)C(C)=O)cc1,132 to 134
17,N#Cc1cccc2c1S(=O)(=O)c1ccccc1C2=O,252 to 254
18,N=C1C=CC=CC1Cc1cccc2c1NCC2 (stereo unspecified),62 to 63
19,COc1ccc(-c2c3ccccc3cc3sc4ccccc4c23)cc1,220 to 221
20,CCCCC(OC)c1nc2c(N)nc3ccccc3c2n1CC(C)C (stereo unspecified),125 to 128
21,CC(C)C(=O)N[C@H](CSSC[C@@H](NC(=O)C(C)C)C(=O)O)C(=O)O,135 to 137
22,CCn1c(C#N)ccc1-c1ccc2c(c1)C(C)(C)OC(=S)N2,212 to 213
23,COc1cc2c(C)c(C#N)cnc2cc1F,177 to 179
24,NC(=O)c1c(N)sc2ccccc2c1=O,277 to 279
25,O=C(CCCCC(=O)Oc1ccc(NC(=O)c2ccccc2)cc1)CC1CC(O)CC1=O (stereo unspecified),143 to 146
26,CCC(C=O)c1ccc(S(=O)(=O)NC)cc1 (stereo unspecified),202 to 204

row,Structure (SMILES),melting point [°C]
1,COC(=O)c1ccc(Cc2cc3cc(Cl)ccc3n2S(=O)(=O)N2CCCCC2)cc1,133
2,CCC(=O)Nc1ccc(OCc2nc3ccccc3s2)cc1,182
3,Cc1nc(N2CCCC2)nc(C)c1-c1cccc2c1OC[C@H]2Nc1ccc2c(c1)OC[C@H]2CC(=O)O,169
4,CC1=C(c2ccc(CC(C)NCC(O)c3cccc(Cl)c3)cc2)CCC(=O)N1 (stereo unspecified),103 to 106
5,CN(C)C(=O)Nc1ccc(Oc2ccc3sncc3c2)cc1,156
6,COc1nc(NC(=O)NS(=O)(=O)Nc2nc(C)cc(C)n2)nc(OC)n1,172
7,CCOc1nn(-c2ccc(C(F)(F)F)cn2)cc1CCCOc1c(CC(=O)O)cccc1OC,122 to 123
8,CC(C)(C)c1ccc(NC(=O)c2cccc(C(OC(=O)Nc3ccc4[nH]ncc4c3)[C@@H]3CCCCN3)c2)cc1 (stereo partly specified),214
9,O=C(CC1CCCCC1)Nc1ccc2oc3c(c2c1)CCCCCC3,180 to 181
10,Cc1ccc(Cl)cc1N1CCCN(CC(C)C)C1=S,96 to 98
11,O=C1C2CCCCC2=Nc2ccccc2N1Cc1ccccc1 (stereo unspecified),123 to 125
12,CC(C)C(S)C(=O)NC1(C(=O)NC(Cc2ccc(-c3ccccc3)s2)C(=O)O)CCCC1 (stereo unspecified),154 to 155
13,CCCCCCCNC(=O)Nc1ccc([N+](=O)[O-])cc1C(=O)NC1CCN(C(c2ccccc2)c2ccccc2)CC1,165 to 166
14,CC(CC(=O)NCCc1ccc(C(=O)O)cc1)(c1ccccc1)c1ccccc1,211
15,CCCCN(CCCC)CCCOc1ccc(S(=O)(=O)c2c(-c3ccccc3)noc2C(C)C)cc1,53.5
16,CCOC(C)(OCC)C(=O)c1c[nH]c2ncc(-c3cc(OC)c(OC)c(OC)c3)nc12,198 to 201
17,Cc1cc(C(=O)N(C)C)cc(N)n1,165 to 171
18,CCCCCCCCCCCCCCCCS(=O)(=O)Nc1cccc2ccc(O)cc12,104 to 107
19,CC1=C2OC(C)(C)OC2CC(C)(C)C1=O (stereo unspecified),79 to 80
20,CC(=O)c1cccc2c1[C@@H](NC(=O)c1ccc(F)cc1)[C@H](O)C(C)(C)O2 (relative stereo),175
21,COc1ccc(C2=C(c3ccc(S(C)(=O)=O)cc3)CCC2)cc1Cl,118 to 120
22,Nc1cc2ccncc2c2sc3ccccc3c12,220 to 225
23,COc1cc(C(O)C#N)ccc1O (stereo unspecified),80 to 81
